Experimental data published in US12553889B2, “Small molecules targeting the intrinsically disordered structural ensemble of α-synuclein protect against diverse α-synuclein mediated dysfunctions” (The Regents of the University of California, priority 2019, dated 2026).
“Also recorded” adds a separate entry of the source.

Key:
[1] = system: H4 neuroglioma cells over-expressing αSyn; experiment: Phagocytosis assay; assay type: cell-based, human; settings: for phagocytosis restored, percent of that in cells with endogenous αSyn levels (control): phagocytosis inhibited by αSyn overexpression; for reversal of αSyn mediated inhibition of phagocytosis: 100 nM
Experimental: A human neuroglioma H4 cell-derived cell line stably over-expressing αSyn from a tetracycline inducible promoter was generated using the tet inducible TRex system (Invitrogen division of Life Technologies) and grown in serum-free X-VIVO media (Lonza Group, Basel, Switzerland). Cells were seeded in 96-well plates at densities yielding 75 to 90% confluency during the phagocytosis assay. The next day, compound was added along with 5 μg/ml tetracycline to induce αSyn overexpression. Cells were cultured overnight and the next day were fed […] red fluorescent beads (Invitrogen, Carlsbad, CA) for 90 minutes at a cell-to-bead ratio of 1:10. Plates were gently washed with 100 μl/well media twice, fixed and stained with HEMA3 (Thermo Fisher, Waltham, MA). Plates were dried overnight and read on an ArrayScan (Thermo Fisher, Waltham, MA). As the HEMA3 stain absorbs light, the internalized beads are less fluorescent than the outside beads. Tet/non-tet and 484228 samples were run on each plate.

[2] = target: T1, αSyn (Homo sapiens, UniProt P37840); experiment: αSyn fibrillization assay (Thioflavin T fluorescence); assay type: biochemical; set-up: made in house; host or cells: E. coli BL21(DE3), pET-21d; settings: compound at 300 μM, 70 μM αSyn, vs 0.5% DMSO control
Experimental: Fibrillization assays. Prior to each aggregation assay, purified αSyn at 5 mg/mL was treated with 6M guanidine and dialyzed 36 hours in a 3500 MW cutoff Slide-A-lyzer with three changes of 20 mM sodium phosphate and 100 mM NaCl pH 7.4 buffer. αSyn was centrifuged at 130,000 g for 40 minutes in a Beckman Ultracentrifuge to remove seeding species and supernatant used for assays. For initial testing, 60 mM compound in DMSO was diluted to 300 μM in 0.5% DMSO and controls contained equivalent DMSO concentrations. Assay samples contained 20 μM Thioflavin T, filtered through a 0.45 μm Acrodisc filter prior to each assay, 70 μM αSyn in 20 mM sodium phosphate and 100 mM NaCl pH 7.4. One teflon bead, (0.125″ PTFE, Grade 2 polished) was placed in each well of a 96 well black with clear bottom assay plate (Corning) in a total volume of 500 μL. The plate was sealed with Mylar and parafilm, placed at 37° C. in a Tecan F200Pro Plate Reader and shaken at an amplitude of 6 mm for 120 hours continuously except for a brief time during reading of the plate. Thioflavin T fluorescence was detected by excitation at 440 nm and reading emissions at 485 nm each 60 minutes throughout the assay. To generate αSyn seeds for the seeding assays, αSyn at 10 mg/mL was incubated with stirring at 43° C. for 24 hours followed by exhaustive sonication. 1% (by mass) of seeds were added to the fibrillization assay. Samples were plated in quadruplicate, and the replicates averaged for each experiment for plotted data. Data were analyzed in Excel using XL-fit sigmoidal model #600 and when normalized, comparing fluorescence values at 50 hours for compounds as a percentage of DMSO control.
α-Syn for the Fibrillization assay. Wildtype human αSyn was produced from a pET-21d plasmid (Millipore, Burlington, MA) in E. coli BL21(DE3) cells induced by addition of 1 mM […] and incubated at 16° C. overnight. Cells were harvested by centrifugation at 4,000×g for 10 minutes and stored at −80° C. Frozen cells expressing αSyn protein were resuspended in 50 mM Tris, pH 7.5, 1 mM TCEP, 1 mM EDTA, and 1 mM L-Methionine and lysed using a microfluidizer. Lysate was centrifuged at 7000×g for 0.5 hours at 21° C. The supernatant was boiled in a water bath for 15 minutes, cooled on ice and centrifuged at 45,000 g for 30 min. The supernatant was filtered through a 0.2 μm Corning filter and subjected to ion exchange chromatography using a Capto ImpRes Q (GE Healthcare, Upssala, Sweden) anion exchange (IEX) column at ambient temperature. The column was eluted with a gradient of 100 column volumes from 0 to 1M NaCl using an AKTA Explorer 100 Liquid Chromatography System (GE Healthcare, Uppsala, Sweden). Pure αSyn fractions were desalted to 50 mM KPO4, pH 7.5 and 50 mM NaCl using PD-10 columns (GE Healthcare, Chicago, IL) and concentrated to 5 mg/mL or 10 mg/ml (3K MWCO, Amicon Ultra, Millipore, Burlington, MA).
Statistical Analysis of compound activity in Fibrillization assays. For the analyses of compound activity in the αSyn fibrillization assay, the relative fluorescence unit (RFU) data obtained from compounds were compared to those of DMSO, to identify those that are statistically different from DMSO at various time points. Each experiment contained 4 replicates of each compound and of DMSO control. […] A repeated measures analysis of variance was performed on logarithmic transformed data using a linear mixed effects model which included Compound, Time, Replicate (Compound) and Compound*Time. The covariance structure across time that minimized the corrected Akaike Information Criterion (AICC) was used and the Kenward and Roger method was used to determine the appropriate degrees of freedom. Each compound mean was compared to the DMSO mean using Bonferroni multiplicity adjusted t-tests. Statistical analyses were conducted using the MIXED procedure in SAS 9.1 (SAS Institute Inc. Cary, NC, USA). Statistical significance refers to p-value<0.05.

[3] = system: H4 neuroglioma cells over-expressing αSyn; settings: earlier report; cited from earlier work
[4] = target: T1, αSyn; set-up: made in house; host or cells: E. coli; settings: prior study (Toth et al 2014); cited from earlier work
[5] = target: T1, αSyn; set-up: made in house; host or cells: E. coli; settings: prior study (Toth et al 2014); cited from earlier work; remark: listed apart in the source

SMILES | phagocytosis restored, percent of that in cells with endogenous αSyn levels (control) [1] [%] | impact on αSyn fibrillization (thioflavin fluorescence signal) [2] | reversal of αSyn mediated inhibition of phagocytosis [1] | further results
CNC(=O)CC(N)c1ccc(-c2ccccc2)cc1 (stereo not drawn) [Compound 581674, 3-([1,1′-biphenyl]-4-yl)-3-amino-N-methylpropanamide] | 100 | inhibit fibrillization; also recorded: blocks αSyn fibrillization | – | –
O=S(=O)(Nc1ccc(F)cc1)c1ccccc1 [Compound 484228, N-(4-fluorophenyl)benzenesulfonamide] | ≤ 80 | – | – | restoration of phagocytosis in the face of αSyn overexpression [3]: restored normal phagocytosis; reversal of αSyn over-expression mediated neurodegeneration [4]: protective activity; impact on aggregation of the recombinant protein [5]: without impact on aggregation
NC(=O)[C@@H](NC(=O)c1csc(-c2ccccc2)n1)C1CCCCC1 [Compound 573419, (S)-N-(2-amino-1-cyclohexyl-2-oxoethyl)-2-phenylthiazole-4-carboxamide] | – | – | complete reversal | –
CNC(=O)C[C@H](N)Cc1cccc2ccccc12 [Compound 573416, (R)-3-amino-N-methyl-4-(naphthalen-1-yl)butanamide] | – | no impact on αSyn fibrillization | – | –
NC(=O)[C@H](Cc1c[nH]cn1)NC(=O)c1ccccn1 [Compound 573418, (S)-N-(1-amino-3-(1H-imidazol-4-yl)-1-oxopropan-2-yl)picolinamide] | – | – | complete reversal | –
